Consider ten compounds from patent US20210070748A1, “INHIBITORS OF BRUTONS TYROSINE KINASE” (Pharmacyclics LLC, priority 2015, published 2021).

Molecules are shown by their SMILES. Where only a bound is given, the exact number is not on record here.

For one experiment, the target named is T1, BTK-WT (Homo sapiens, UniProt Q06187).
T1 construct: purified from insect cells as a full-length construct containing an N-terminal 6X-His tag; His6 (N); made in house; host or cells: insect cells (baculovirus Sf21 in Method B)
As to the kind of experiment: Btk in vitro inhibitory activity (one of Method A TR-FRET, Method B electrophoretic mobility shift, Method C radiometric filter binding). The format is biochemical. Particulars: D-compounds panel data; read-out: IC50 BTK-WT.

The target of a further experiment is T2, TEC (Homo sapiens, UniProt P42680).
T2 sequence (P42680 1-631): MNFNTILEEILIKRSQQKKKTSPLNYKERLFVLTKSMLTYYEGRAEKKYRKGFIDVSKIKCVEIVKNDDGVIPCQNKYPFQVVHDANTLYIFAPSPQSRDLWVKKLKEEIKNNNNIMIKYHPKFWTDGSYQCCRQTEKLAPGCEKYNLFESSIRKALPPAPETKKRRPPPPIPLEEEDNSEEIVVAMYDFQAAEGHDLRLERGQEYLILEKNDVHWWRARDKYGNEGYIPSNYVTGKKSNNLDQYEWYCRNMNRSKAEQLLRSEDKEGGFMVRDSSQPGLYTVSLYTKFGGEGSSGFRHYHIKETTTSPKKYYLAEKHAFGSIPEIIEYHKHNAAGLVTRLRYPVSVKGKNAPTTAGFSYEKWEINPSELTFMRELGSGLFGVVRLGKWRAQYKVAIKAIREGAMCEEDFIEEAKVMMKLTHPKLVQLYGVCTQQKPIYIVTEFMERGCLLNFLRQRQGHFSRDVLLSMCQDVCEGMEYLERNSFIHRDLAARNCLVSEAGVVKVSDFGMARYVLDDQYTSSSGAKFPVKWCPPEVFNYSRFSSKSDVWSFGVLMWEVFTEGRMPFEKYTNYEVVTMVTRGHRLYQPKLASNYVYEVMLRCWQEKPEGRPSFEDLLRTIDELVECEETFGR
Nature of the experiment: Inhibition of a panel of kinases, in vitro HotSpot kinase assay: TEC. In kind it is biochemical. Particulars: D-compounds panel data; 1 μM ATP. The protocol:
The degree of inhibition of a panel of kinases is determined using the in vitro HotSpot kinase assay (purified enzymes, ^33P-ATP, an appropriate substrate and 1 μM ATP).

T1 sequence (Q06187 whole entry): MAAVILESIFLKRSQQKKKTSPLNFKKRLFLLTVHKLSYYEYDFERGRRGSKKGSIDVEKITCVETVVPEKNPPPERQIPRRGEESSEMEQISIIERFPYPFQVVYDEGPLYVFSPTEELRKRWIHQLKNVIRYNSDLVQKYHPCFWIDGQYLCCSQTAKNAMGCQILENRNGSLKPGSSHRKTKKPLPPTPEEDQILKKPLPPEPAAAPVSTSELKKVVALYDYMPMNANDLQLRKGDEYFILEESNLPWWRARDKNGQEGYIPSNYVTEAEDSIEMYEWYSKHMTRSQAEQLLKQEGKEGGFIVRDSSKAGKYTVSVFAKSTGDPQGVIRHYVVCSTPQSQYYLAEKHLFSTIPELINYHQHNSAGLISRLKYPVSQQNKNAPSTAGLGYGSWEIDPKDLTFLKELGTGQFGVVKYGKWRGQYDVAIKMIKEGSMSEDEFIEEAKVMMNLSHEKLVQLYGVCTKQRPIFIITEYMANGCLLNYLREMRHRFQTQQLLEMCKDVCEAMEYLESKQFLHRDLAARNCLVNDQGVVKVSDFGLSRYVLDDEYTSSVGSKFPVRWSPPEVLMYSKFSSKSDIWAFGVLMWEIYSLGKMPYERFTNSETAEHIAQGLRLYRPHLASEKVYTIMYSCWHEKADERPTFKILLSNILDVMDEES

For orientation: IC50 means the concentration that gives 50% inhibition. Regarding `C[C@@H]1[C@H](NC(=O)c2ccc(C(N)=O)cc2)CCCN1c1cnc(C(N)=O)c(Nc2cnn(C)c2)n1` [Example D-268, 1-N-[(2R,3R)-1-{5-carbamoyl-6-[(1-methyl-1H-pyrazol-4-yl)amino]pyrazin-2-yl}-2-methylpiperidin-3-yl]benzene-1,4-dicarboxamide], the 50% inhibitory concentration (IC50) at BTK-WT and against TEC was not above 10 nM each time.

For the compound `C[C@@H]1[C@H](NC(=O)c2ccc(C3CC3)cc2)CCCN1c1cnc(C(N)=O)c(Nc2cnn(C(F)F)c2)n1` [Example D-275, 5-[(2R,3R)-3-(4-cyclopropylbenzamido)-2-methylpiperidin-1-yl]-3-{[1-(difluoromethyl)-1H-pyrazol-4-yl]amino}pyrazine-2-carboxamide], the half-inhibitory concentration (IC50) on BTK-WT is not above 10 nM; against TEC, 10 to 100 nM.

Consider `C[C@@H]1[C@H](NC(=O)N(C)C)CCCN1c1cnc(C(N)=O)c(Nc2ccc(N3CCC(F)(F)CC3)cc2)n1` [Example D-306, 3-{[4-(4,4-difluoropiperidin-1-yl)phenyl]amino}-5-[(2R,3R)-3-[(dimethylcarbamoyl)amino]-2-methylpiperidin-1-yl]pyrazine-2-carboxamide], for which the IC50 was not above 10 nM at BTK-WT and 10 to 100 nM at TEC.

Take `CC(=O)N1CCN(c2ccc(Nc3nc(N4CCC[C@@H](NC(=O)c5ccc(C6CC6)cc5)[C@H]4C)cnc3C(N)=O)cc2)CC1` [Example D-295, 3-{[4-(4-acetylpiperazin-1-yl)phenyl]amino}-5-[(2R,3R)-3-(4-cyclopropylbenzamido)-2-methylpiperidin-1-yl]pyrazine-2-carboxamide]: the IC50 at BTK-WT and on TEC was not above 10 nM throughout.

With `C[C@@H]1[C@H](NC(=O)c2ccc(C3CC3)cc2Cl)CCCN1c1cnc(C(N)=O)c(Nc2cnn(C)c2)n1` [Example D-20, 5-[(2R,3R)-3-(2-chloro-4-cyclopropylbenzamido)-2-methylpiperidin-1-yl]-3-[(1-methyl-1H-pyrazol-4-yl)amino]pyrazine-2-carboxamide], the half-maximal inhibitory concentration (IC50) is not above 10 nM on BTK-WT and 10 to 100 nM on TEC.

In the case of `C[C@@H]1[C@H](NC(=O)c2ccc3[nH]cnc3c2)CCCN1c1cnc(C(N)=O)c(Nc2cnn(C)c2)n1` [Example D-262, N-[(2R,3R)-1-{5-carbamoyl-6-[(1-methyl-1H-pyrazol-4-yl)amino]pyrazin-2-yl}-2-methylpiperidin-3-yl]-1H-1,3-benzodiazole-5-carboxamide], the concentration for half-maximal inhibition (IC50) at BTK-WT and at TEC was not above 10 nM each time.

For the compound `C[C@@H]1[C@H](NC(=O)c2ccc(C(C)(C)C)cc2)CCCN1c1cnc(C(N)=O)c(Nc2cnn(C)c2)n1` [Example D-22, 5-[(2R,3R)-3-(4-tert-butylbenzamido)-2-methylpiperidin-1-yl]-3-[(1-methyl-1H-pyrazol-4-yl)amino]pyrazine-2-carboxamide], the IC50 at BTK-WT was not above 10 nM; on TEC it was 10 to 100 nM.

For the compound `C[C@@H]1[C@H](NC(=O)c2ccc(C3CC3)cc2)CCCN1c1cnc(C(N)=O)c(Nc2cnn(C)c2F)n1` [Example D-290, 5-[(2R,3R)-3-(4-cyclopropylbenzamido)-2-methylpiperidin-1-yl]-3-[(5-fluoro-1-methyl-1H-pyrazol-4-yl)amino]pyrazine-2-carboxamide], the IC50 fell in the range of 10 to 100 nM on BTK-WT and 100 to 1000 nM against TEC.

`C[C@@H]1[C@H](NC(=O)c2ccc(C(C)(C)C)cc2)CCCN1c1nnc(C(N)=O)c(Nc2cnn(C)c2)n1` [Example D-285, 3-[(2R,3R)-3-(4-tert-butylbenzamido)-2-methylpiperidin-1-yl]-5-[(1-methyl-1H-pyrazol-4-yl)amino]-1,2,4-triazine-6-carboxamide]: the IC50 on BTK-WT and against TEC was not above 10 nM each time.

On to `Cc1c(Nc2nc(N3CCC[C@@H](NC(=O)c4ccc(C5CC5)cc4)[C@H]3C)cnc2C(N)=O)cnn1C` [Example D-271, 5-[(2R,3R)-3-(4-cyclopropylbenzamido)-2-methylpiperidin-1-yl]-3-[(1,5-dimethyl-1H-pyrazol-4-yl)amino]pyrazine-2-carboxamide], for which the concentration for half-maximal inhibition (IC50) fell in the range of 10 to 100 nM on BTK-WT and 1000 to 10000 nM at TEC.
